Results published in ChEMBL document CHEMBL1201862, “PubChem BioAssay data set” (2004).
The source made the active and inactive calls.

Experiments:
[1] = biological target: T1, Mannose-6-phosphate isomerase (Homo sapiens, UniProt P34949); experiment: human PMI inhibitors, high substrate, primary screen, biochemical, fluorescence intensity, high mannose 6-phosphate (AID 1220)
T1 sequence (P34949 whole entry): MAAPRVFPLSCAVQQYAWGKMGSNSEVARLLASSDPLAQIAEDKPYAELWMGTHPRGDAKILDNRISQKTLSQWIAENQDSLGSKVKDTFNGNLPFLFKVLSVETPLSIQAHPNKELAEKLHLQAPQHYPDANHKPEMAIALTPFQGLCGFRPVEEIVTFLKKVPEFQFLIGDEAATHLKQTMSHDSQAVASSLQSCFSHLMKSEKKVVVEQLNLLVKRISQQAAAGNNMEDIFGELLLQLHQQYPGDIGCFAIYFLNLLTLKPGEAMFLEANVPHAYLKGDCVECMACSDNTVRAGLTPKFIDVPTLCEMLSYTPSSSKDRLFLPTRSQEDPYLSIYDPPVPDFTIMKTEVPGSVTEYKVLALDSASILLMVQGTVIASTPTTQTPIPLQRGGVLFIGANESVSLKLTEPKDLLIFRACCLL

[2] = biological target: Disintegrin and metalloproteinase domain-containing protein 17 (Homo sapiens, UniProt P78536); experiment: exosite inhibitors of ADAM17, dose response, biochemical (AID 743260)
Chain of Disintegrin and metalloproteinase domain-containing protein 17 (P78536 whole entry, the tested form may be a part): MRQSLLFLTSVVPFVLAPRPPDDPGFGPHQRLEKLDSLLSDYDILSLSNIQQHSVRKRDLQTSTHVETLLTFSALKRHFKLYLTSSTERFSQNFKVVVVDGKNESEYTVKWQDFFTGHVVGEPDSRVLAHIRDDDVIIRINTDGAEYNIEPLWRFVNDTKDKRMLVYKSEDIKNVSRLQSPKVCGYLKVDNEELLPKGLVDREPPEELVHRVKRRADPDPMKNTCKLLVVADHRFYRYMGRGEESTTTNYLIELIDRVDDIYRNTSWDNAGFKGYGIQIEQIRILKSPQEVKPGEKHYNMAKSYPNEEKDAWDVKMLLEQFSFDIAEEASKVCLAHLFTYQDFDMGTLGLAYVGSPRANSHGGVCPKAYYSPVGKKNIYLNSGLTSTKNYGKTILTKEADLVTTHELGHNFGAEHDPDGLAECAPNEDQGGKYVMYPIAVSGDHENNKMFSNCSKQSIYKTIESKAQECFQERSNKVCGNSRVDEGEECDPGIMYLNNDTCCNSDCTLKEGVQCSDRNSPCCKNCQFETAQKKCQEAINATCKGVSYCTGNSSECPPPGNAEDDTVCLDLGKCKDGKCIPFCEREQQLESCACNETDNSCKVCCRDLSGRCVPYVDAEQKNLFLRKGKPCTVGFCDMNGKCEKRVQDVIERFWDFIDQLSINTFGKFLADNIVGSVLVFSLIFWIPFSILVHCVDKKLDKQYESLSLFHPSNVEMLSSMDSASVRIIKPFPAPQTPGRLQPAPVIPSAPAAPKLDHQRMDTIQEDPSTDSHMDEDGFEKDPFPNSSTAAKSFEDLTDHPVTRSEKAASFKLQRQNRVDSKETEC

[3] = ADAM10 protease inhibitors, dose response, selectivity assay for ADAM17 exosite inhibitor project, biochemical, FRET peptide substrate, recombinant human ADAM10 (AID 743259);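 note: ADAM10 enzyme cleaving a FRET peptide substrate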
Paired box protein Pax-8 = Paired box protein Pax-8 (Homo sapiens, UniProt Q06710); experiment: inhibitors of PAX8-driven TPO luciferase reporter, dose response, RMG-I cells, cherry-pick (AID 687027); type: functional, cell-based;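 note: luciferase reporter driven by Pax8 target thyroperoxidase promoter measured by SteadyGlo luminescence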
Chain of Paired box protein Pax-8 (Q06710 whole entry): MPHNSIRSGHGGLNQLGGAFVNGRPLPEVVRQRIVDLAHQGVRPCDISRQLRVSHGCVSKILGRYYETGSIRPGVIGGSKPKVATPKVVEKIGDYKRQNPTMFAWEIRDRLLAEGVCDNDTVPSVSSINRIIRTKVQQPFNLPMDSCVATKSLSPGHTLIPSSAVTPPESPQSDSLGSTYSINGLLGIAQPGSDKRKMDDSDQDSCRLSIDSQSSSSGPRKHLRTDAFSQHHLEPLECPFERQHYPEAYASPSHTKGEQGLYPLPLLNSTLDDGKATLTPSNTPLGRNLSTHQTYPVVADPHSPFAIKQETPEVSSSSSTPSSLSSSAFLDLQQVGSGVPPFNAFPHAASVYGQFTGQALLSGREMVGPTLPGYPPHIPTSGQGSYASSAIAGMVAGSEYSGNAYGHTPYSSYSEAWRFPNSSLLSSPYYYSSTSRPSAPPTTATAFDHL

[4] = inhibitors of PGC1a acetylation in cells, dose response, cell-based, cherry-picked samples (AID 720514); type: functional;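 note: potency may reflect raised or lowered acetylation signal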
[5] = cytotoxicity in OVCAR8 ovarian cancer cells, dose response, PAX8 project, cell-based, plate reader, dry powder samples (AID 743197); type: functional; conditions: OVCAR-8
[6] = P. falciparum 3D7-ScDHODH growth inhibitors, dose response, SYBR Green, dry powder samples (AID 1159570); type: functional, cell-based;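 note: parasite growth measured after 72 hours of compound exposure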
[7] = P. falciparum ATP4 D1247Y mutant growth inhibitors, dose response, NITD609-resistant line, SYBR Green, dry powder (AID 1159571); type: functional, cell-based;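 note: parasites synchronized at ring stage by sorbitol before testing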
[8] = P. falciparum Dd2 growth inhibitors, dose response, SYBR Green, cherry-picked samples (AID 1159567); type: functional, cell-based
[9] = P. falciparum Dd2 growth inhibitors, dose response, SYBR Green, dry powder samples (AID 1159566); type: functional, cell-based;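 note: potency for growth inhibition with lower SYBR green DNA signal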
Protein RecA = biological target: T2, Protein RecA (Mycobacterium tuberculosis, UniProt P9WHJ3); experiment: Fluorescence Cell-Free Homogeneous Dose Retest to Identify Inhibitors of RecA-Intein Splicing Activity. [Related pubchem assays (depositor defined):AID2097, AID2223, AID489010, AID492950]; type: functional
T2 sequence (P9WHJ3 whole entry): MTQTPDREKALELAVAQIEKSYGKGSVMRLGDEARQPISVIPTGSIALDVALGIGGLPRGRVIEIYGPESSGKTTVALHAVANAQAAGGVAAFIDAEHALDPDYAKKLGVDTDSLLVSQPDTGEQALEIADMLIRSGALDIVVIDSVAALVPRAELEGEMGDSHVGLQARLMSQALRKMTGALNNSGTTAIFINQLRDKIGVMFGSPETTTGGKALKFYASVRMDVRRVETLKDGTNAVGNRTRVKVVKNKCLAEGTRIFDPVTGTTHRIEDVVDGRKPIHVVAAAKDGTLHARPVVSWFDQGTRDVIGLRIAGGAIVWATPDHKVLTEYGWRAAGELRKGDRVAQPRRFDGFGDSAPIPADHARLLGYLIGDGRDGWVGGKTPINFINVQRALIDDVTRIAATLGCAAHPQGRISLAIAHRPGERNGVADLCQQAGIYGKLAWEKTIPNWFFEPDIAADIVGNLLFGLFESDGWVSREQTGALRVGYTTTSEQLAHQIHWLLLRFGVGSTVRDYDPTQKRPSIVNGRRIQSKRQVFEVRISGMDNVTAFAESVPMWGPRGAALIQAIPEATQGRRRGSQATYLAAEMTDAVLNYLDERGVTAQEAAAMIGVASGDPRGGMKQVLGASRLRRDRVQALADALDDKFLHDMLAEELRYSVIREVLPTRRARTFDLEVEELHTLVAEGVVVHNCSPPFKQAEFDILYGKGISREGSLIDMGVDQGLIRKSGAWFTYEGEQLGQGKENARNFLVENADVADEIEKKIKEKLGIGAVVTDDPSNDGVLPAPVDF

[10] = biological target: T3, Glutathione-S-transferase (Schistosoma japonicum, UniProt Q26513); experiment: biotin-GST/anti-GST TR-FRET signal inhibitors, dose response, artefact control for Vif-APOBEC3G degradation inhibitor project, biochemical (AID 1117362); type: functional
T3 sequence (Q26513 whole entry): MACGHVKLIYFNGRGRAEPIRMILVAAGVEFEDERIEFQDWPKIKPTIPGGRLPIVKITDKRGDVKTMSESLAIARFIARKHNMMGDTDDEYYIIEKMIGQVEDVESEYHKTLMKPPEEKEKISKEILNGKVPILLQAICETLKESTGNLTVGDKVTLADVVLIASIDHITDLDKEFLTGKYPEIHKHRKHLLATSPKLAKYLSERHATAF

[11] = biological target: T4, Replicative DNA helicase DnaB (Mycobacterium tuberculosis, UniProt P9WMR3); experiment: DnaB intein splicing inhibitors, dose response, biochemical, cell-free fluorescence (AID 449749); type: functional
T4 sequence (P9WMR3 whole entry): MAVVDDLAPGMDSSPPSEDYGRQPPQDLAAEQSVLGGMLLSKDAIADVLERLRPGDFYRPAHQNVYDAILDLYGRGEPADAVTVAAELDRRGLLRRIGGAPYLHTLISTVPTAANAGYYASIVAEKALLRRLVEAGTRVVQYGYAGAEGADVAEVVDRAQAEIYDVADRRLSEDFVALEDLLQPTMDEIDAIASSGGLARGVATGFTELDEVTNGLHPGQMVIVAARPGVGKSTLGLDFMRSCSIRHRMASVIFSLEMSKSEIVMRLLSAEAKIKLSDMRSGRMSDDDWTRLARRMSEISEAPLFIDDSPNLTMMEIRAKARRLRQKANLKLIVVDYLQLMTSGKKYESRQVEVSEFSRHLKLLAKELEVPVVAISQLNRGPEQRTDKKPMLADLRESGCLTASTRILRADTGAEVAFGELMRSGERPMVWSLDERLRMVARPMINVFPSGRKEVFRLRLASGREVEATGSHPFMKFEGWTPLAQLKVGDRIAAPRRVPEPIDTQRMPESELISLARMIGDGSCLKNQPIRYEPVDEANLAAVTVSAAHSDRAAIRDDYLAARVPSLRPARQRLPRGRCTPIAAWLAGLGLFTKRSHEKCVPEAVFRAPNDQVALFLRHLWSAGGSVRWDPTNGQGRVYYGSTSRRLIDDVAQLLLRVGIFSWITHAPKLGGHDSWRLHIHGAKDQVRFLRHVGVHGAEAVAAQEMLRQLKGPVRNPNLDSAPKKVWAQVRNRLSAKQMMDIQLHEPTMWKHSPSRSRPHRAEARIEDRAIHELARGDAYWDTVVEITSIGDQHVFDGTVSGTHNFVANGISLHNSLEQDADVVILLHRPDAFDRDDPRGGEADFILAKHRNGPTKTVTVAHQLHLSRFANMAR

[12] = Vero cell cytotoxicity, dose response, cytotoxicity control for Vif-APOBEC3G degradation inhibitor project, Vero cells (AID 1117358); type: functional; conditions: Human immunodeficiency virus 1, Vero
[13] = SNU-C1 cell viability reduction, dose response, CellTiter-Glo luminescence (AID 1117323); type: functional, cell-based
[14] = cytotoxicity toward HT-29 cells – cell-based, CellTiter-Glo luminescence, IC50, dose response (AID 1117330); type: functional
[15] = Concentration-dependent survival of SW480 colon cancer line, luminescence detection with CellTiter-Glo, half-maximal inhibitory concentration (AID 1117338); type: functional
[16] = CellTiter-Glo luminescent dose response of DLD-1 viability loss (AID 1117352); type: functional
[17] = cytotoxicity toward HCT116 cells – cell-based, CellTiter-Glo luminescence, IC50, dose response (AID 1117332); type: functional; conditions: HCT-116
[18] = cytotoxicity toward Colo320 cells – cell-based, CellTiter-Glo luminescence, IC50, dose response (AID 1117334); type: functional; conditions: COLO 320
[19] = RKO cell viability reduction, dose response, CellTiter-Glo luminescence (AID 1117322); type: functional
[20] = Luminescence Cell-Based Dose Retest to Confirm Inhibitors of Cancer Stem Cells. [Related pubchem assays (depositor defined):AID2717, AID2721]; type: functional; conditions: Homo sapiens
[21] = biological target: Bifunctional protein GlmU (Mycobacterium tuberculosis, UniProt P9WMN3); experiment: Inhibitors of Mycobacterial Glucosamine-1-phosphate acetyl transferase (GlmU). Secondary screen.; parameters: species or system Mycobacterium tuberculosis H37Rv
Chain of Bifunctional protein GlmU (P9WMN3 whole entry): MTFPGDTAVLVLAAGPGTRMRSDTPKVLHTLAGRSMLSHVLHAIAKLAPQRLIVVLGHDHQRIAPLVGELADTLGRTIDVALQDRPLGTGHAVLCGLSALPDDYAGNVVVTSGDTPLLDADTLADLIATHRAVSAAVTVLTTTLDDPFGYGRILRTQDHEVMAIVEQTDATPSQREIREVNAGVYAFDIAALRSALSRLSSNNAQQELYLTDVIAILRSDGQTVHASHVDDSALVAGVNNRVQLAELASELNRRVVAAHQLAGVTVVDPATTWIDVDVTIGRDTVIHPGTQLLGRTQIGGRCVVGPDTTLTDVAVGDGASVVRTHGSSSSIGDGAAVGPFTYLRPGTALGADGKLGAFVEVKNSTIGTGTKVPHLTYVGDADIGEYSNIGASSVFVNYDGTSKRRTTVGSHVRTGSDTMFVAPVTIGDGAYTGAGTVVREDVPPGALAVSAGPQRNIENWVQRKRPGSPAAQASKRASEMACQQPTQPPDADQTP

Structure (SMILES): O=[N+]([O-])c1c(NCCO)cc(N2CCCCC2)c2nonc12
- IC50 [1]: > 50 µM (not active)

Structure (SMILES): CCOC(=O)C1=CN(Cc2cccc(F)c2)S(=O)(=O)NC1c1ccc2ccccc2c1 (stereo not given)
- IC50 [2]: > 69.5 µM (inactive)
- IC50 [3]: > 7.73 µM (active)

Structure (SMILES): C[C@@H]1CCCCO[C@H](CN(C)Cc2ccc(Cl)c(Cl)c2)[C@H](C)CN([C@@H](C)CO)C(=O)c2cc(NC(=O)Nc3ccc(F)cc3)ccc2O1
- AC50 (Paired box protein Pax-8): 11.3 µM (active)
- AC50 [4]: 14.3 µM (active)
- AC50 [5]: 65.1 µM (active)

Structure (SMILES): C[C@H](CO)N1C[C@H](C)[C@@H](CN(C)C(=O)Nc2ccc(-c3ccccc3)cc2)OCc2ccccc2-c2c(n(C)c3ccccc23)C1=O
- AC50 [6]: 0.684 µM (active)
- AC50 [7]: 0.577 µM (active)
- AC50 [8]: 1.41 µM (active)
- AC50 [9]: 0.544 µM (active)

Structure (SMILES): CCN(CC)c1ccc2c(c1)CCCN2
- EC50 (Protein RecA): > 380 µM (inconclusive)
- IC50 [10]: 48.6 µM (active)
- AC50 [11]: > 120 µM (inactive)
- CC50 [12]: > 40 µM (active)

Structure (SMILES): CC(C)NCC(O)COc1ccc(CCOCC2CC2)cc1 (stereo not given) [BETAXOLOL]
- IC50 [13]: > 20 µM (inactive)
- IC50 [14]: > 20 µM (inactive)
- IC50 [15]: > 20 µM (inactive)
- IC50 [16]: > 20 µM (inactive)
- IC50 [17]: > 20 µM (inactive)
- IC50 [18]: 6.17 µM (inactive)
- IC50 [19]: > 20 µM (inactive)

Structure (SMILES): O=S(=O)(c1ccccc1)N(CC(O)Cn1c2ccccc2c2ccccc21)c1ccccc1 (stereo not given)
- AC50 [20]: 3.66 µM (active)
- IC50 [2]: > 69.5 µM (inactive)
- IC50 [3]: > 69.5 µM (inactive)

Structure (SMILES): O=C1CCCC(=O)C1=NNc1cccc(C(=O)O)c1
- IC50 [21]: 120 µM (active)
